pIC50: −log10 of the molar value. Active and inactive are the calls of the source. No cut-off for these calls is given here.
Experiments:
[1] = tested on: ASPC1; assay: Cytotoxicity against human ASPC1 cells assessed as inhibition of cell growth incubated for 72 hrs by SRB assay; assay type: functional, cell-based; conditions: ASPC1, 72 h
[2] = tested on: ASPC1; assay: Induction of apoptosis in human ASPC1 cells assessed as necrotic cells at 5 uM incubated for 24 hrs by annexinV-FITC and PI staining based flow cytometry analysis (reference value: 0.27 %); assay type: functional
[3] = tested on: ASPC1; assay: Induction of apoptosis in human ASPC1 cells assessed as viable cells at 1.25 uM incubated for 24 hrs by annexinV-FITC and PI staining based flow cytometry analysis (reference value: 96.0 %); assay type: functional; conditions: read-out: Activity
[4] = tested on: PANC-1; assay: Cytotoxicity against human PANC-1 cells assessed as inhibition of cell proliferation incubated for 24 to 72 hrs by SRB assay; assay type: functional, cell-based; conditions: dose 0.94-30 µM, time 24-72 hrs, DDE = dose-dependent effect
[5] = tested on: ASPC1; assay: Cytotoxicity against human ASPC1 cells assessed as inhibition of cell proliferation at 0.94 to 30 uM by SRB assay; assay type: functional, cell-based; conditions: dose 0.94-30 µM, time 24-72 hrs, TDE = time-dependent effect
[6] = tested on: ASPC1; assay: Upregulation of cleaved caspase 3 expression in human ASPC1 cells incubated for 24 hrs in presence of gemcitabine by Western blot analysis; assay type: functional, cell-based
[7] = tested on: ASPC1; assay: Upregulation of PARP expression in human ASPC1 cells incubated for 24 hrs in presence of gemcitabine by Western blot analysis; assay type: functional, cell-based
[8] = tested on: ASPC1; assay: Induction of apoptosis in human ASPC1 cells assessed as late apoptotic cells at 1.25 uM incubated for 24 hrs by annexinV-FITC and PI staining based flow cytometry analysis (reference value: 2.18 %); assay type: functional
[9] = tested on: PANC-1; assay: Cytotoxicity against human PANC-1 cells assessed as inhibition of cell proliferation at 0.94 to 30 uM by SRB assay; assay type: functional, cell-based; conditions: dose 0.94-30 µM, time 24-72 hrs, TDE = time-dependent effect
[10] = tested on: PANC-1; assay: Induction of apoptosis in human PANC-1 cells assessed as viable cells at 2.50 uM incubated for 24 hrs by annexinV-FITC and PI staining based flow cytometry analysis (reference value: 89.5 %); assay type: functional; conditions: read-out: Activity
[11] = tested on: PANC-1; assay: Upregulation of PARP expression in human PANC-1 cells incubated for 24 hrs in presence of gemcitabine by Western blot analysis; assay type: functional, cell-based
[12] = tested on: ASPC1; assay: Induction of apoptosis in human ASPC1 cells assessed as early apoptotic cells at 5 uM incubated for 24 hrs by annexinV-FITC and PI staining based flow cytometry analysis (reference value: 1.56 %); assay type: functional
[13] = tested on: PANC-1; assay: Induction of apoptosis in human PANC-1 cells assessed as necrotic cells at 2.50 uM incubated for 24 hrs by annexinV-FITC and PI staining based flow cytometry analysis (reference value: 0.14 %); assay type: functional; conditions: dose 2.5 µM
[14] = tested on: ASPC1; assay: Downregulation of Bcl-2 level in human ASPC1 cells upto 5 uM incubated for 24 hrs by Western blot analysis; assay type: functional, cell-based
[15] = target: Epidermal growth factor receptor (Homo sapiens) (UniProt P00533); assay: Inhibition of EGFR expression in human PANC-1 cells upto 5 uM incubated for 24 hrs by Western blot analysis; assay type: cell-based
[16] = tested on: PANC-1; assay: Downregulation of survivin level in human PANC-1 cells upto 5 uM incubated for 24 hrs by Western blot analysis; assay type: functional, cell-based
[17] = tested on: ASPC1; assay: Induction of apoptosis in human ASPC1 cells assessed as early apoptotic cells at 2.50 uM incubated for 24 hrs by annexinV-FITC and PI staining based flow cytometry analysis (reference value: 1.56 %); assay type: functional; conditions: dose 2.5 µM
[18] = tested on: PANC-1; assay: Induction of apoptosis in human PANC-1 cells assessed as early apototic cells at 5 uM incubated for 24 hrs by annexinV-FITC and PI staining based flow cytometry analysis (reference value: 4.66 %); assay type: functional
[19] = tested on: ASPC1; assay: Induction of apoptosis in human ASPC1 cells assessed as late apoptotic cells at 2.50 uM incubated for 24 hrs by annexinV-FITC and PI staining based flow cytometry analysis (reference value: 2.18 %); assay type: functional; conditions: dose 2.5 µM
[20] = tested on: PANC-1; assay: Inhibition of cell migration in human PANC-1 cells at 0.94 to 3.75 uM incubated for 24 hrs by wound healing assay; assay type: functional, cell-based; conditions: dose 0.94-3.75 µM
[21] = tested on: PANC-1; assay: Induction of apoptosis in human PANC-1 cells assessed as viable cells at 5 uM incubated for 24 hrs by annexinV-FITC and PI staining based flow cytometry analysis (reference value: 89.5 %); assay type: functional; conditions: read-out: Activity
[22] = tested on: PANC-1; assay: Induction of apoptosis in human PANC-1 cells assessed as viable cells at 1.25 uM incubated for 24 hrs by annexinV-FITC and PI staining based flow cytometry analysis (reference value: 89.5 %); assay type: functional; conditions: read-out: Activity
[23] = tested on: PANC-1; assay: Upregulation of cleaved caspase 3 expression in human PANC-1 cells incubated for 24 hrs in presence of gemcitabine by Western blot analysis; assay type: functional, cell-based
[24] = tested on: PANC-1; assay: Induction of apoptosis in human PANC-1 cells assessed as early apototic cells at 2.50 uM incubated for 24 hrs by annexinV-FITC and PI staining based flow cytometry analysis (reference value: 4.66 %); assay type: functional; conditions: dose 2.5 µM
[25] = tested on: ASPC1; assay: Antiinvasive activity in human ASPC1 cells assessed as decrease in cell invasion at 0.94 to 3.75 uM incubated for 24 hrs by crystal violet staining based transwell assay; assay type: functional; conditions: dose 0.94-3.75 µM
[26] = target: Epidermal growth factor receptor (Homo sapiens) (UniProt P00533); assay: Inhibition of EGFR downstream signalling in human ASPC1 cells assessed as reduction of STAT3 phosphorylation upto 5 uM incubated for 24 hrs by Western blot analysis; assay type: cell-based
[27] = tested on: ASPC1; assay: Induction of apoptosis in human ASPC1 cells assessed as increase in caspase 3 enzymatic activity upto 5 uM incubated for 24 hrs by Western blot analysis; assay type: functional, cell-based
[28] = target: Epidermal growth factor receptor (Homo sapiens) (UniProt P00533); assay: Inhibition of EGFR downstream signalling in human PANC-1 cells assessed as reduction of Akt phosphorylation upto 5 uM incubated for 24 hrs by Western blot analysis; assay type: cell-based
[29] = tested on: ASPC1; assay: Induction of apoptosis in human ASPC1 cells assessed as suppression of XIAP expression at upto 5 uM incubated for 24 hrs by Western blot analysis; assay type: functional, cell-based
[30] = tested on: PANC-1; assay: Induction of apoptosis in human PANC-1 cells assessed as increase in PARP level incubated for 24 hrs by Western blot analysis; assay type: functional, cell-based; conditions: dose 1.25-5 µM, DDE = dose-dependent effect
[31] = tested on: ASPC1; assay: Inhibition of cell migration in human ASPC1 cells at 0.94 to 3.75 uM incubated for 24 hrs by wound healing assay; assay type: functional, cell-based; conditions: dose 0.94-3.75 µM

Sequence of Epidermal growth factor receptor (Homo sapiens) (P00533 whole entry): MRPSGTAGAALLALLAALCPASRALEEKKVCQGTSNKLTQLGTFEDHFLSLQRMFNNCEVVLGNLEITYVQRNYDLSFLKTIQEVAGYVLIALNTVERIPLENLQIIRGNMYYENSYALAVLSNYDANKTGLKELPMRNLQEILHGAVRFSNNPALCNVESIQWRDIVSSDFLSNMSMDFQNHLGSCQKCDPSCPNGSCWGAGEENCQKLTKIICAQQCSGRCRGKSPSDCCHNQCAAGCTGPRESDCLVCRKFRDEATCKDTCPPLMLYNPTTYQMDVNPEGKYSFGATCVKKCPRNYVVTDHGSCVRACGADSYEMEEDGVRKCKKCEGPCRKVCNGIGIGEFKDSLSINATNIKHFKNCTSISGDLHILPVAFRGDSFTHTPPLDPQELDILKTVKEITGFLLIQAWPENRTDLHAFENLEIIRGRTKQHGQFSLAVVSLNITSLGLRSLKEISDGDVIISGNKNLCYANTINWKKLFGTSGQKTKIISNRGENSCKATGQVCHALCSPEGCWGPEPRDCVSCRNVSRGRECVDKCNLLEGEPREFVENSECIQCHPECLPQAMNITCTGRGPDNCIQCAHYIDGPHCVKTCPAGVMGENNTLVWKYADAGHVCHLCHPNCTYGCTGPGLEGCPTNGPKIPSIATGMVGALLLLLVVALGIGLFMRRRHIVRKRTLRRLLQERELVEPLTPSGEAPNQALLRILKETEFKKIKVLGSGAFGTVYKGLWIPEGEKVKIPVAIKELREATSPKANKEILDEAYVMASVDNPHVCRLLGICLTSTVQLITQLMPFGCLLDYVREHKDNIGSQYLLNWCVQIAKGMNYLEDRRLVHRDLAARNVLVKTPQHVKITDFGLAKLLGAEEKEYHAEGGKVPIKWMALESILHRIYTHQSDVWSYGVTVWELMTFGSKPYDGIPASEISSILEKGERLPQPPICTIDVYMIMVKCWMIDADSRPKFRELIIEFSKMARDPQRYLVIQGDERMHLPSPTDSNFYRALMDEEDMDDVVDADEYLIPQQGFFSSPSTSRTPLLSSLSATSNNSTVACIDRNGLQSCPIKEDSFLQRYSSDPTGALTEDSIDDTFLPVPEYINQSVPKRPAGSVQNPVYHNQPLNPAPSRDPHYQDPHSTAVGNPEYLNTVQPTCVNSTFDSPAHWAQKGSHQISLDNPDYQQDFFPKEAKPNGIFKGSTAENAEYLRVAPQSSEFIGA

Compound: COC(=O)CCCCCCC/C=C/C(=O)OC[C@@]1(C)CCC[C@@]2(C)[C@H]1[C@H](OC(=O)c1ccc([N+](=O)[O-])cc1)C=C1C(=O)OC[C@@]12O
- pIC50 [1]: 5.64
- Activity [2]: 1.79%
- viability at 1.25 µM [3]: 90.1%
- Activity [4]: Dde
- Activity [5]: Tde
- Activity [6]: Active
- Activity [7]: Active
- Activity [8]: 3.96%
- Activity [9]: Tde
- viability at 2.5 µM [10]: 80.6%
- Activity [11]: Active
- Activity [12]: 2.98%
- Activity [13]: 0.25%
- Activity [14]: Active
- inhibition [15]: Active
- Activity [16]: Active
- Activity [17]: 7.03%
- Activity [18]: 7.12%
- Activity [19]: 4.92%
- inhibition [20]: Active
- viability at 5 µM [21]: 69.6%
- viability at 1.25 µM [22]: 90.7%
- Activity [23]: Active
- Activity [24]: 5.58%
- Activity [25]: Active
- inhibition [26]: Active
- Activity [27]: Active
- inhibition [28]: Active
- Activity [29]: Active
- Activity [30]: Dde
- inhibition [31]: Active

Source: ChEMBL document CHEMBL5120812, “Cytotoxic Nitrobenzoyl Sesquiterpenoids from an Antarctica Sponge-Derived Aspergillus insulicola” (J Nat Prod, 2022)
